Results published in patent US20090074885A1, “Reversible Hydrophobic Modification of Drugs for Improved Delivery to Cells” (Roche Madison Inc., priority 2003, published 2009).
Like-named read-outs stand apart in the source and are kept apart here.

How the values were obtained:
[1] = tested on: SK-OV-3 peritoneal tumors; assay: Direct application / IP injection in mouse model of disseminated peritoneal ovarian cancer; type: in vivo, nude mice; settings: two weeks after SK-OV-3 inoculation, direct application or IP injection
Procedure: BDMODS-PI and C12PMMA-PI show enhanced drug uptake by surface tissue and microtumors following IP and intraperitoneal perfusion chemotherapy (IPPC) application in a mouse tumor model. For establishment of the cancer model, 2×10^6 SK-OV-3 cells were injected IP into nude mice. The mice were examined at two weeks following cell inoculation, or at the first manifestation of ascites (about 4-5 wks). Tissue samples were fixed in 10% NBF, routinely processed, stained with H&E stain, and subjected to histopathological analysis. […] At 4-5 weeks after SK-OV-3 cell inoculation, maximum tumor size increased to 5-7 mm with the bulk of cancer development present as about 0.1 to about 1 mm microtumors (FIG. 9). At 5 wks most peritoneal surfaces were affected by growing cancer cells, coating both the visceral and parietal peritoneum, e.g. liver, pancreas, and diaphragm. […]
Two weeks following cell inoculation, the abdominal cavity was opened and the drug mixture was directly applied on the duodenum and ovary/uterus/fallopian tubes (220 μL of drug-OS/ITG over 30 sec). […] Cellular uptake of the prodrug was stronger at the surface of the metastases, but also readily detectable in the middle of the small tumors (tumor size about 0.5 to about 1 mm; FIG. 7-8). […]

[2] = Qualitative 90° light scattering for particles; type: physicochemical; settings: relative to ITG or PI in ITG
Procedure: Light Scattering analysis of prodrugs. Particle size was determined by dynamic light scattering on a Zeta Plus (Zeta Potential Analyzer, Brookhaven Instrument Corporation, λ 533 nm, 90°), and results are reported as the size of the most abundant particle (range of particle sizes, counts sec^−1). Fluorescent compounds were also analyzed for particles qualitatively, by measuring for light scattering on a Cary Eclipse Fluorescence Spectrophotometer (Varian Inc.), with λex=λem (300-800 nm, 90° detection). The presence of particles in solution results in an increase in signal detection at 90°. PI and RRH-PI prodrugs were 7.48 mM in DMSO. Melphalan and V were 50 mM in DMSO. The drug/prodrug solutions were mixed and diluted with ITG through the mixing chamber (40 μl OS and 400 μl ITG), and analyzed immediately.

[3] = tested on: SK-OV-3 (human ovarian carcinoma); assay: WST cytotoxicity assay, SK-OV-3; type: cell-based; settings: SK-OV-3, 4 min drug exposure, read-out: Mean IC50
Procedure: Antiproliferative/Cytotoxic in vitro studies on PI, RRH-PI prodrugs, melphalan, and C12PMMA-melphalan. In vitro cytotoxicity testing was conducted on Hepa 1-6 (mouse hepatoma), SK-OV-3 (human ovarian carcinoma), and MC38 (mouse colon carcinoma) cells using a tetrazolium based assay (WST, Dojindo Molecular Technologies). For the WST assay, Hepa 1-6 (2.0×10^5 cells well), SK-OV-3 (7.5×10^5 cells well), and MC38 (8.5×10^5 cells well) were seeded in 1000 μL media into 12-well plates 24 h prior to testing (starting confluency ˜50%). Following removal of media, drug/prodrug solution was added drop-wise to quadruplicate wells, using the mixing chamber. Effective drug concentrations were calculated from the amount of drug added in the total volume of OS and aqueous solution. Following 4 min of drug solution exposure, the solution was removed, and 1000 μl fresh complete media was added to each well. After the cells were incubated for 24-48 h, WST-1 (20 μl of a 5 mM solution in PBS) and N-methylphenazonium methyl sulfate (PMS, 20 μl 0.2 mM solution in PBS) were added and the cells were incubated for 1-4 h. For testing with MC38 cells, the amounts of WST-1 and PMS were doubled. Following incubation, 100 μl of sample was transferred to quadruplicate wells on a 96-well plate, and the absorbance (438 nm) values were measured on a SPECTRAmax Plus^384 microplate spectrophotometer (Molecular Devices Corporation). Data represents the mean A438 values of 16 wells with standard deviation, corrected for media contribution, and normalized against cells in media with no drug/prodrug treatment (reported as % cell viability±standard deviation).
The concentration of drug (μM) that is required for 50% inhibition in vitro is reported as the IC50. The reported values were calculated from the best fit line (Excel) for a plot of effective drug concentration against % cell viability, and include the r^2 value. The reported IC50 values for multiple RRH-PI plots are reported as IC50 (μM)±standard deviation.

Row | Compound | labeling of peritoneal tumors [1] | increase in 90° light scattering signal intensity [2] | IC50 ([3]; WST 24 h after) [µM] | IC50 ([3]; WST 48 h after) [µM]
1 | CCCCCCCCCCCCCCCCCC[Si](C)(C)Nc1ccc2c(c1)c(-c1ccccc1)[n+](CCC[N+](C)(CC)CC)c1cc(N[Si](C)(C)CCCCCCCCCCCCCCCCCC)ccc21.[I-].[I-] [II, 3,8-bis[((dimethyl)octadecylsilazyl)amine] 5-(3,3-diethyl-3-methylammoniumpropyl) 6-phenyl phenanthridinium diiodide] | intensely labeled | maximum two fold increase | 194 | 257
2 | CCCCCCCCCCCCNC(=O)CCC(=CCC(=O)O)C(=O)Nc1ccc2c(c1)c(-c1ccccc1)[n+](CCC[N+](C)(CC)CC)c1cc(NC(=O)C(=CCC(=O)O)CCC(=O)NCCCCCCCCCCCC)ccc21.[I-].[I-] [III, 3,8-bis-[2-(2 carboxyethylidene)-4-(dodecarbamoyl)-1-oxo-butylamine] 5-(3,3-diethyl-3-methylammoniumpropyl) 6-phenyl phenanthridinium diiodide] | intensely labeled | maximum two fold increase | – | –
3 | CC[N+](C)(CC)CCC[n+]1c(-c2ccccc2)c2cc(N)ccc2c2ccc(N)cc21.[I-].[I-] [PI, Propidium iodide, reference compound] | – | – | > 1250 | > 1700
